Biological target: T1, human CPT1A (Homo sapiens, UniProt P50416)
T1 construct: made in house; host or cells: Saccharomyces cerevisiae (pESC-trp) or cultured mammalian cells (pCDNA3.1); mitochondrial extract
T1 sequence (P50416 1-773): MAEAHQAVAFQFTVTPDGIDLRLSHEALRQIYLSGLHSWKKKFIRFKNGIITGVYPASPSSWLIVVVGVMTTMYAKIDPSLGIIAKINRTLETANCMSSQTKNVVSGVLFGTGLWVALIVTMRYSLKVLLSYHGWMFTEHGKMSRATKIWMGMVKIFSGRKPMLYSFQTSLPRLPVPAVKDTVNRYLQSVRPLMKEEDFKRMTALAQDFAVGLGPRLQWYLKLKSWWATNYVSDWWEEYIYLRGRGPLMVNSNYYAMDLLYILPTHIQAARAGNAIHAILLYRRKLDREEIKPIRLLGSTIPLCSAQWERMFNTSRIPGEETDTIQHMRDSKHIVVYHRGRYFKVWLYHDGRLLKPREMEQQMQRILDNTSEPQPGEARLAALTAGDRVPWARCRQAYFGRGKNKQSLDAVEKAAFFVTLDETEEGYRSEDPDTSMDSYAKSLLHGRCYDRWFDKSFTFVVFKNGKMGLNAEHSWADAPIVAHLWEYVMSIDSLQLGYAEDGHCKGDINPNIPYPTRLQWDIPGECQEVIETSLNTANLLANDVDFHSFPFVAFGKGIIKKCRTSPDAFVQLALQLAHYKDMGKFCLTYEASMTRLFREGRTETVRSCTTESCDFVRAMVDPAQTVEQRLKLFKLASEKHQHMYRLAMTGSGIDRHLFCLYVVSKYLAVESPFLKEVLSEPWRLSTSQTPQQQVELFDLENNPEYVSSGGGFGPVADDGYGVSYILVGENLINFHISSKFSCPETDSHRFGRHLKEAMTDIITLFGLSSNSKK
Assay: Human CPT1A LC/MS assay
Assay type: biochemical
Settings: human CPT1A LC/MS assay, dose response format
How it was run: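 Mitochondrial extracts (1.6 μg protein) expressing human CPT1A, preincubated 10 min with compound in 20% DMSO, then reacted 10 min at room temperature with 20 μM palmitoyl-CoA, 50 μM L-carnitine (pH 7.5). Palmitoyl carnitine was quantified by LC/MS against a myristoyl carnitine standard; 16-point, 2-fold titrations gave dose response.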

| SMILES | IC50 [µM] |
| --- | --- |
| CCCCCCCCCCCCc1ccc(NS(=O)(=O)N[C@H](CC(=O)O)C[N+](C)(C)C)cc1 [Example S89, (R)-3-(N-(4-dodecylphenyl)sulfamoylamino)-4-(trimethylammonio)-butanoate] | ≤ 1 |
| CCCCCCCCCCOc1cccc(C(=O)N[C@H](CC(=O)[O-])C[N+](C)(C)C)c1 [Example S67, (R)-3-(3-(decyloxy)benzamido)-4-(trimethylammonio)butanoate] | 10 to 100 |
| CCCCCCCCCCc1ccc(C(=O)N[C@H](CC(=O)[O-])C[N+](C)(C)C)cc1 [Example S66, (R)-3-(4-decylbenzamido)-4-(trimethylammonio)butanoate] | ≤ 1 |
| CCCCCCCCCCOc1ccc(C(=O)N[C@H](CC(=O)O)C[N+](C)(C)C)cc1 [Example S63, (R)-3-(4-(decyloxy)benzamido)-4-(trimethylammonio)butanoate 2,2,2-trifluoroacetate] | ≤ 1 |
| CCCCCCCOc1ccc(NC(=O)N[C@H](CC(=O)[O-])C[N+](C)(C)C)cc1 [Example S10, (R)-3-(3-(4-(heptyloxy)phenyl)ureido)-4-(trimethylammonio)butanoate] | 10 to 100 |
| CCCCCCCCCCCCCCc1ccc(NS(=O)(=O)N[C@H](CC(=O)O)C[N+](C)(C)C)cc1 [Example S90, (R)-3-(N-(4-tetradecylphenyl)sulfamoylamino)-4-(trimethylammonio)-butanoate] | ≤ 1 |
| CCCCCCCCc1ccc(NC(=O)N[C@H](CC(=O)[O-])C[N+](C)(C)C)cc1 [Example S7, (R)-3-(3-(4-octylphenyl)ureido)-4-(trimethylammonio)butanoate] | 1 to 10 |
| CCCCCCCCCCc1ccc(S(=O)(=O)N[C@H](CC(=O)O)C[N+](C)(C)C)cc1 [Example S75, (R)-3-carboxy-2-(4-decylphenylsulfonamido)-N,N,N-trimethylpropan-1-aminium 2,2,2-trifluoroacetate] | 1 to 10 |
